Test: xn = mol fraction of the nth substance listed
Settings: 100 kPa, Liquid; for viscosity: Falling or rolling sphere viscometry; for speed of sound: Frequency=3 MHz, Single path-length method; for mass density: Vibrating tube method

CCn1cc[n+](C)c1.O=S(=O)([O-])C(F)(F)F [1-ethyl-3-methylimidazolium trifluoromethanesulfonate] + C[S+](C)[O-]
Settings | mass density [kg/m3] | speed of sound [m/s] | viscosity [mPa·s]
298.15 K, x1 = 0.1068 | 1168.75 | 1488 | 3.65
298.15 K, x1 = 0.2015 | 1216.25 | 1477.1 | 5.35
298.15 K, x1 = 0.3077 | 1256.63 | 1468.6 | 7.89
298.15 K, x1 = 0.4023 | 1284.76 | 1462.5 | 11.82
298.15 K, x1 = 0.4933 | 1306.53 | 1456.5 | 16.26
298.15 K, x1 = 0.6022 | 1328.03 | 1453 | 21.05
298.15 K, x1 = 0.6993 | 1344 | 1449.9 | 26.12
298.15 K, x1 = 0.7929 | 1357.15 | 1445.6 | 31.96
298.15 K, x1 = 0.9008 | 1370.28 | 1441.2 | 38.88
298.15 K, x1 = 1 | 1379.91 | 1436 | 45.67
303.15 K, x1 = 0.1068 | 1164 | 1472.7 | 3.26
303.15 K, x1 = 0.2015 | 1211.78 | 1462.7 | 4.72
303.15 K, x1 = 0.3077 | 1252.35 | 1454.9 | 6.9
303.15 K, x1 = 0.4023 | 1280.52 | 1449.4 | 10.2
303.15 K, x1 = 0.4933 | 1302.34 | 1443.8 | 13.93
303.15 K, x1 = 0.6022 | 1323.93 | 1440.6 | 17.95
303.15 K, x1 = 0.6993 | 1339.92 | 1437.8 | 22.18
303.15 K, x1 = 0.7929 | 1353.08 | 1433.9 | 27.03
303.15 K, x1 = 0.9008 | 1366.19 | 1430 | 32.74
303.15 K, x1 = 1 | 1375.71 | 1425.4 | 38.31
308.15 K, x1 = 0.1068 | 1159.28 | 1457.5 | 2.94
308.15 K, x1 = 0.2015 | 1207.5 | 1448.3 | 4.2
308.15 K, x1 = 0.3077 | 1248.17 | 1441.2 | 6.08
308.15 K, x1 = 0.4023 | 1276.4 | 1436.4 | 8.91
308.15 K, x1 = 0.4933 | 1298.26 | 1431.3 | 12.06
308.15 K, x1 = 0.6022 | 1319.96 | 1428.4 | 15.48
308.15 K, x1 = 0.6993 | 1335.83 | 1425.8 | 19.05
308.15 K, x1 = 0.7929 | 1349.06 | 1422.3 | 23.08
308.15 K, x1 = 0.9008 | 1362.09 | 1418.7 | 27.81
308.15 K, x1 = 1 | 1371.51 | 1414.3 | 32.38
313.15 K, x1 = 0.1068 | 1154.49 | 1442.4 | 2.66
313.15 K, x1 = 0.2015 | 1203.23 | 1434 | 3.76
313.15 K, x1 = 0.3077 | 1243.91 | 1427.7 | 5.42
313.15 K, x1 = 0.4023 | 1272.21 | 1423.5 | 7.85
313.15 K, x1 = 0.4933 | 1294.19 | 1418.8 | 10.52
313.15 K, x1 = 0.6022 | 1315.98 | 1416.5 | 13.47
313.15 K, x1 = 0.6993 | 1331.89 | 1414 | 16.52
313.15 K, x1 = 0.7929 | 1345.04 | 1410.8 | 19.91
313.15 K, x1 = 0.9008 | 1358.06 | 1407.4 | 23.88
313.15 K, x1 = 1 | 1367.36 | 1403 | 27.68
318.15 K, x1 = 0.1068 | 1149.74 | 1425.5 | 2.42
318.15 K, x1 = 0.2015 | 1198.95 | 1419.8 | 3.39
318.15 K, x1 = 0.3077 | 1239.74 | 1414.3 | 4.85
318.15 K, x1 = 0.4023 | 1268.06 | 1410.8 | 6.96
318.15 K, x1 = 0.4933 | 1290.23 | 1406.5 | 9.26
318.15 K, x1 = 0.6022 | 1312.02 | 1404.5 | 11.82
318.15 K, x1 = 0.6993 | 1327.93 | 1401.9 | 14.45
318.15 K, x1 = 0.7929 | 1341 | 1399.5 | 17.32
318.15 K, x1 = 0.9008 | 1353.95 | 1396.5 | 20.68
318.15 K, x1 = 1 | 1363.21 | 1392.7 | 23.86
323.15 K, x1 = 0.1068 | 1144.99 | 1410.4 | 2.22
323.15 K, x1 = 0.2015 | 1194.68 | 1405.7 | 3.08
323.15 K, x1 = 0.3077 | 1235.66 | 1401 | 4.37
323.15 K, x1 = 0.4023 | 1263.96 | 1398.1 | 6.22
323.15 K, x1 = 0.4933 | 1286.19 | 1394.3 | 8.23
323.15 K, x1 = 0.6022 | 1307.97 | 1392.7 | 10.45
323.15 K, x1 = 0.6993 | 1323.95 | 1390.7 | 12.72
323.15 K, x1 = 0.7929 | 1337.02 | 1388.2 | 15.19
323.15 K, x1 = 0.9008 | 1349.9 | 1385.5 | 18.05
323.15 K, x1 = 1 | 1359.07 | 1381.7 | 20.75
